For 25 compounds, IC50 results are on record in patent US9758492B2, “IDO inhibitors” (Bristol-Myers Squibb Company, priority 2013, dated 2017).

Assay [1] concerns the target T1, Human IDO1 (Homo sapiens, UniProt P14902).
T1 construct: expressed in transfected cells; host or cells: HEK293
The assay can be described thus: IDO Kynurenine Assay with Human IDO1/HEK293 Cells. In kind it is cell-based. Particulars: read-out: HEK human IDO-1 (IC50). The essentials: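 HEK293 cells stably expressing human IDO1, in phenol red-free RPMI/10% FBS, exposed to compound for 20 h at 37 °C. Stopped with 0.2% TCA (50 °C, 30 min); kynurenine in supernatant detected with Ehrlich reagent, absorbance 490 nm.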

In assay [2] the target is IDO (Homo sapiens, UniProt P14902). The assay can be described thus: LLE_IDO_ABS_DR (IDO assay).
Chain of IDO (P14902 whole entry): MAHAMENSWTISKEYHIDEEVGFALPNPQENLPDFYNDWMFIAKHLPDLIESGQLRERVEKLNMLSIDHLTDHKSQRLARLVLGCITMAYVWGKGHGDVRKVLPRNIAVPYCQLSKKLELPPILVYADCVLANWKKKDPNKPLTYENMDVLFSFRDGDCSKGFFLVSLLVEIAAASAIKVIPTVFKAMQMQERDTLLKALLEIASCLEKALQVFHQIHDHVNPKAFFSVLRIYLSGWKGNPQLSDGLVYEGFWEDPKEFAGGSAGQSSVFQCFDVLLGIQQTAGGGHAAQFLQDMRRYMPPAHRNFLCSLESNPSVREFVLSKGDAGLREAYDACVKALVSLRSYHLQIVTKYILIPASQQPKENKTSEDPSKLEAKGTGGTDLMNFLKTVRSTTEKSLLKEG

The term IC50 denotes the point on the concentration scale where inhibition reaches its midpoint.

T1 sequence (P14902 whole entry): as above

For the compound `Cc1ccc(NC(=O)Nc2cc(-c3ccccc3-c3nnn[nH]3)ccc2N2CCC(c3ccccc3)C2)cc1` (racemic) [Example 367, (±)-1-(4-(3-Phenylpyrrolidin-1-yl)-2′-(1H-tetrazol-5-yl)-[1,1′-biphenyl]-3-yl)-3-(p-tolyl)urea], the IC50 amounted to 10 nM in assay [1] and 20 nM in assay [2]. Taken in the same sequence, the figures for `O=C(Nc1ccc(C(F)(F)F)cc1F)Nc1cc(-c2ccccc2-c2nnn[nH]2)ccc1N1CCC(c2ccccc2)C1` (racemic) [Example 370, (±)-1-(2-Fluoro-4-(trifluoromethyl)phenyl)-3-(4-(3-phenylpyrrolidin-1-yl)-2′-(1H-tetrazol-5-yl)-[1,1′-biphenyl]-3-yl)urea] were 70 nM and 50 nM. Taken in the same sequence, the figures for `Cc1ccc(NC(=O)Nc2cc(-c3ccccc3-c3nnn[nH]3)ccc2N(CCC(F)(F)F)Cc2cccc(Cl)c2)cc1` [Example 13, 1-(4-((3-Chlorobenzyl)(3,3,3-trifluoropropyl)amino)-2′-(1H-tetrazol-5-yl)-[1,1′-biphenyl]-3-yl)-3-(p-tolyl)urea] were 60 nM and 30 nM.

As for `Cc1ccc(NC(=O)Nc2cc(-c3ccccc3C(=O)O)ccc2N(CCC(F)(F)F)Cc2ccc(Cl)cc2)cc1` [Example 14, 4′-((4-Chlorobenzyl)(3,3,3-trifluoropropyl)amino)-3′-(3-(p-tolyl)ureido)-[1,1′-biphenyl]-2-carboxylic acid], the IC50 in assay [1] is 100 nM; in assay [2] it was 80 nM. Turning to `Cc1ccc(NC(=O)Nc2cc(-c3ccccc3-c3nnn[nH]3)ccc2N(CCC(F)(F)F)Cc2ccc(Cl)cc2)cc1` [Example 16], the values for the IC50 in assay [1] and in assay [2] were 20 nM and 10 nM, respectively.

For `Cc1ccc(NC(=O)Nc2cc(-c3ccccc3-c3nnn[nH]3)ccc2N(CCC(F)(F)F)Cc2ccccc2Cl)cc1` [Example 19, 1-(4-((2-Chlorobenzyl)(3,3,3-trifluoropropyl)amino)-2′-(1H-tetrazol-5-yl)-[1,1′-biphenyl]-3-yl)-3-(p-tolyl)urea], the IC50 was 40 nM in assay [1] and 20 nM in assay [2]. `CC(C)CN(CC(C)C)c1ccc(-c2ccccc2-c2nnn[nH]2)cc1NC(=O)Nc1ccc(Br)cc1F` [Example 38, 1-(4-Bromo-2-fluorophenyl)-3-(4-(diisobutylamino)-2′-(1H-tetrazol-5-yl)biphenyl-3-yl)urea]: the values for the IC50 in assay [1] and in assay [2] were 1.78 nM and 1.84 nM, respectively. On to `Cc1ccc(NC(=O)Nc2cc(-c3ccccc3-c3nnn[nH]3)cc(Cl)c2N(CC(C)C)CC(C)C)cc1` [Example 39, 1-(5-Chloro-4-(diisobutylamino)-2′-(1H-tetrazol-5-yl)biphenyl-3-yl)-3-p-tolylurea], for which the IC50 in assay [1] came out at 2.37 nM; in assay [2], 1 nM. Taken in the same sequence, the figures for `Cc1ccc(NC(=O)Nc2cc(-c3ccccc3C(=O)O)cc(Cl)c2N(CC(C)C)CC(C)C)cc1` [Example 40, 3′-Chloro-4′-(diisobutylamino)-5′-(3-p-tolylureido)biphenyl-2-carboxylic acid] were 10 nM and 3.79 nM. Taken in the same sequence, the figures for `Cc1ccc(NC(=O)Nc2cc(-c3cc(F)ccc3C(=O)O)cc(Cl)c2N(CC(C)C)CC(C)C)cc1` [Example 41, 3′-Chloro-4′-(diisobutylamino)-5-fluoro-5′-(3-p-tolylureido)biphenyl-2-carboxylic acid] were 6.31 nM and 1.78 nM. Taken in the same sequence, the figures for `Cc1ccc(NC(=O)Nc2cc(-c3cc(F)ccc3C(=O)O)ccc2N(CC(C)C)CC(C)C)cc1` [Example 126, 4′-(diisobutylamino)-5-fluoro-3′-(3-p-tolylureido)biphenyl-2-carboxylic acid] were 10 nM and 20 nM.

`Cc1ccc(NC(=O)Nc2cc(-c3ccc(Cl)cc3C(=O)O)ccc2N(CC(C)C)CC(C)C)cc1` [Example 127, 4-chloro-4′-(diisobutylamino)-3′-(3-p-tolylureido) biphenyl-2-carboxylic acid]: the IC50 was determined as 80 nM in assay [1] and 130 nM in assay [2]. For `Cc1ccc(NC(=O)Nc2cc(-c3cccc(F)c3C(=O)O)ccc2N(CC(C)C)CC(C)C)cc1` [Example 150, 4′-(diisobutylamino)-3-fluoro-3′-(3-p-tolylureido)biphenyl-2-carboxylic acid], the concentration for half-maximal inhibition (IC50) is 60 nM in assay [1] and 40 nM in assay [2]. As to `Cc1ccc(NC(=O)Nc2cc(-c3ccccc3-c3nnn[nH]3)c(F)cc2N(CC(C)C)C2CCC(F)(F)CC2)cc1` [Example 534, 1-(4-((4,4-Difluorocyclohexyl)(isobutyl)amino)-6-fluoro-2′-(1H-tetrazol-5-yl)-[1,1′-biphenyl]-3-yl)-3-(p-tolyl)urea], the IC50 in assay [1] came to 3.05 nM.

Regarding `Cc1cc(NC(=O)Nc2cc(-c3cccc(C)c3C(=O)O)ccc2N(CC(C)C)CC(C)C)on1` [Example 535, 4′-(Diisobutylamino)-3-methyl-3′-(3-(3-methylisoxazol-5-yl)ureido)-[1,1′-biphenyl]-2-carboxylic acid], the IC50 in assay [1] worked out at 140 nM. With `Cc1ccc(NC(=O)Nc2cc(-c3cccc(C)c3C(=O)O)ccc2N(CC(C)C)CC(C)C)cc1` [Example 536, 4′-(Diisobutylamino)-3-methyl-3′-(3-(p-tolyl)ureido)-[1,1′-biphenyl]-2-carboxylic acid], in assay [1], the half-inhibitory concentration (IC50) was found to be 70 nM. The same measure, in the same setting: the same measure for `CC(C)CN(c1cc(F)c(-c2ccccc2-c2nnn[nH]2)cc1NC(=O)Nc1ccccc1F)C1CCC(F)(F)CC1` [Example 537, 1-(4-((4,4-Difluorocyclohexyl)(isobutyl)amino)-6-fluoro-2′-(1H-tetrazol-5-yl)-[1,1′-biphenyl]-3-yl)-3-(2-fluorophenyl)urea]: 6.08 nM; for `CC(C)CN(c1cc(F)c(-c2cc(F)ccc2C(=O)O)cc1NC(=O)Nc1ccccc1F)C1CCC(F)(F)CC1` [Example 538, 4′-((4,4-Difluorocyclohexyl)(isobutyl)amino)-2′,5-difluoro-5′-(3-(2-fluorophenyl)ureido)-[1,1′-biphenyl]-2-carboxylic acid]: 10 nM.

As to `CCOc1ccc(NC(=O)Nc2cc(-c3ccccc3-c3nnn[nH]3)c(F)cc2N(CC(C)C)C2CCC(F)(F)CC2)cc1` [Example 539, 1-(4-((4,4-Difluorocyclohexyl)(isobutyl)amino)-6-fluoro-2′-(1H-tetrazol-5-yl)-[1,1′-biphenyl]-3-yl)-3-(4-ethoxyphenyl)urea], the IC50 in assay [1] amounted to 3.3 nM. Still for that read-out and setting: the result for `CCOc1ccc(NC(=O)Nc2cc(-c3cc(F)ccc3C(=O)O)c(F)cc2N(CC(C)C)C2CCC(F)(F)CC2)cc1` [Example 540] reads 10 nM.

As for `Cc1ccc(NC(=O)Nc2cc(-c3cc(F)ccc3C(=O)O)ccc2N(C2CC2)C2CC2)cc1` [Example 541, 4′-(Dicyclopropylamino)-5-fluoro-3′-(3-(p-tolyl)ureido)-[1,1′-biphenyl]-2-carboxylic acid], in assay [1], the IC50 was found to be 3430 nM.

With `Cc1ccc(NC(=O)Nc2cc(-c3ccccc3-c3nnn[nH]3)ccc2N(C2CC2)C2CC2)cc1` [Example 542], the IC50 in assay [1] was 760 nM. As to `CCOc1ccc(NC(=O)Nc2cc(-c3cc(F)ccc3C(=O)O)ccc2N(C2CC2)C2CC2)cc1` [Example 543], the concentration for half-maximal inhibition (IC50) in assay [1] amounted to 7240 nM. As to `CCOc1ccc(NC(=O)Nc2cc(-c3ccccc3-c3nnn[nH]3)ccc2N(C2CC2)C2CC2)cc1` [Example 544], in assay [1], the IC50 was found to be 1740 nM. Still for that read-out and setting: the same measure for `CCOc1ccc(NC(=O)Nc2cc(-c3cccc(C)c3C(=O)O)ccc2N(CC(C)C)CC(C)C)cc1` [Example 545]: 60 nM.
